{
  "source": "patent US20070056052A1",
  "about": "“Methods of generating knock-out rodents” (priority 2001, published 2007)",
  "key": {"mutated HEXA allele mRNA": {"system": "mutated HEXA allele mRNA", "conditions": "increased from undetectable; cited from earlier work"}, "NMD": {"system": "NMD", "assay": "Inhibition of NMD with a protein synthesis inhibitor", "conditions": "preliminary", "description": "The major drawbacks to using the RNA-based cDNA assay are that the gene-specific RNA may not be produced in an easily collectable tissue and mutant RNA may be lost to a great extent by NMD. […] NMD can be minimized by pre-treating collected cells, such as white blood cells, with a protein synthesis inhibitor before RNA collection. This approach has been successful for the yeast gap repair p53 assay (Flaman et al., 1995; Andreutti-Zaugg et al., 1997) and may be extrapolated to in vivo studies by the administration of a protein synthesis inhibitor to rat pups prior to tissue collection. […] The problem of a gene-specific RNA not being produced in tail tissue may be reduced by extending the range of biopsy tissues collected from viable rats, e.g., WBC, liver, skin, etc. In the future as it becomes possible to cryopreserve rat sperm from F1 male rats of mutagenized fathers, their sperm can be frozen and a wide variety of organ-specific RNAs could also be collected and stored, along with DNA from tails or spleens. DNAs or RNAs from a large number of rats could be screened and the appropriate frozen sperm used for the mutant rat recovery via in vitro fertilization and implantation. […]"}, "NMD of hMSH2 and hMLH1": {"system": "NMD of hMSH2 and hMLH1", "conditions": "treatment of freshly drawn whole blood; cited from earlier work"}, "CYP1A1 RNA mutant allele": {"system": "CYP1A1 RNA mutant allele", "conditions": "cell line with a CYP1A1 mutation; cited from earlier work"}, "[1]": {"conditions": "even at high doses; cited from earlier work"}},
  "data": [
    {"compound": "C[C@@H]1C[C@@H]([C@H](O)CC2CC(=O)NC(=O)C2)C(=O)[C@@H](C)C1", "note": "[cyclohexamide]", "values": [
      {"measurement": "mRNA levels of the mutated HEXA allele", "setting": "mutated HEXA allele mRNA", "result": "40 % of the wild-type allele"}
    ]},
    {"compound": "CC[C@H]1CN2CCc3cc(OC)c(OC)cc3[C@@H]2C[C@@H]1C[C@H]1NCCc2cc(OC)c(OC)cc21", "note": "[emetine]", "values": [
      {"measurement": "inhibition of NMD", "setting": "NMD", "result": "preliminary success in inhibiting NMD"}
    ]},
    {"compound": "COc1ccc(C[C@H](N)C(=O)N[C@H]2[C@@H](O)[C@H](n3cnc4c(N(C)C)ncnc43)O[C@@H]2CO)cc1", "note": "[puromycin]", "values": [
      {"measurement": "NMD of hMSH2 and hMLH1", "setting": "NMD of hMSH2 and hMLH1", "result": "suppressed"},
      {"measurement": "steady-state level of CYP1A1 RNA mutant allele", "setting": "CYP1A1 RNA mutant allele", "result": "fully restored"}
    ]},
    {"compound": "Gentamicin", "values": [
      {"measurement": "short-term toxicity profile", "setting": "[1]", "result": "very low short-term toxicity profile even at high doses"}
    ]}
  ]
}
